Source: paper PMC9658316, “Discovery of Mitochondrial Complex I Inhibitors as Anticancer and Radiosensitizer Drugs Based on Compensatory Stimulation of Lactate Release” (Cancers, 2022)

Experiments:
[1] = tested on: intact CT26 cancer cells; test: Seahorse basal OCR and ECAR in intact (non-permeabilized) CT26 cancer cells; format: cell-based, mouse; details: for restoration of OCR / OXPHOS activity in cells exposed to aa compound: intact CT26 cells exposed to aa
Procedure: (§1) L-lactate concentration was measured in a semi-automated manner using CMA Microdialysis AB enzymatic assay and a CMA 600 analyzer (Aurora Borealis, Schoonebeek, The Netherlands) as previously described. Briefly, cells (2 × 10^5 cells per well; 3 wells/condition) were seeded in 12-well plates with 2 mL of their routine culture medium. After 24 h, medium was replaced by 500 µL of DMEM containing 10 mmol/L D-glucose and supplemented with 2 mmol/L L-glutamine and 10% dialyzed FBS (Sigma-Aldrich), in the presence of the compounds or vehicle (DMSO). The initial concentration of L-lactate in the experimental medium was also assessed by including control wells containing only cell culture medium (no cells) on each plate. After incubation for 24 h, extracellular media were collected and deproteinized by centrifugation (15 min, 10,000 rpm, 4 °C) in 10 kDa cut-off filter tubes (VWR, Avantor, Leuven, Belgium). Differences in L-lactate concentrations between control and treated cells were calculated and normalized by the protein content in each well and expressed in µmol/h/mg protein. Oxygen-consumption rate (OCR) was measured using the Seahorse XF96 plate reader as previously reported. Briefly, cells (2 × 10^4 cells per well) were first permeabilized with 1 nM Seahorse XF Plasma Membrane Permeabilizer (#102504-100; Agilent, Machelen, Belgium) and respiration was stimulated by adding 10 mM pyruvate, 5 mM malate, and 2 mM ADP. After baseline OCR determination, compounds were added (to inhibit complex I) followed by 10 mM succinate to fuel complex II and rescue the electron transport chain. In some experiments, the effects of selected hits on basal OCR were evaluated in intact cells (including in the presence of MCT1/2 inhibitor AR-C155858 [29] or methylpyruvate). OCR data were normalized according to protein content in each well.
Since other lactate transporters could be involved, we also used methylpyruvate which can bypass the need for a mitochondrial carrier and mimic the result of lactate oxidation by a mitochondrial LDH or ensure the delivery of pyruvate into the mitochondria matrix. […] In the same experiments carried out on non-permeabilized cancer cells, the extent of basal OCR inhibition in response to 10 µM aa was similar to that observed with 100 nM IACS-010759 (−52 ± 5% and −45 ± 6%, respectively) and mirrored by an increase in extracellular acidification rate (ECAR) (+36 ± 11% and +29 ± 9%, respectively).

[2] = biological target: mitochondrial complex I (Mus musculus, UniProt P03888+Q91WD5+Q9DC70); test: Seahorse OCR in permeabilized CT26 cancer cells, mitochondrial complex I inhibition (Assay #2); format: cell-based; details: for IC50: pyruvate/malate, tested at 1 and 10 µM, read-out: OCR inhib. (IC50); for significant inhibition of complex I: up to 10 µM
Procedure: as §1
(A–D). Graphs depict changes in O2 consumption rate (OCR) measured with the Seahorse technology on permeabilized CT26 cancer cells upon successive addition of pyruvate/malate, the indicated inhibitor and succinate. […] (E,F).

[3] = tested on: colorectal CT26 cancer cells; test: Compound-induced L-lactate release (Assay #1), CT26; format: cell-based, mouse; details: 10 µM; for [LAC] increase: 24 h exposure, L-lactate secretion above basal release
Procedure: as §1
Figure 3 Compound-induced L-lactate release (Assay #1). Culture medium was collected after 24 h exposure to the indicated compounds (10 µM) and the amount of extracellular L-lactate release was determined in a semi-automated manner; dose-dependent effects of complex I inhibitor IACS are shown on the right (shaded bars). Bar graph depicts the extent of L-lactate secretion above the basal release as determined in the absence of any compound (n = 3, ** p < 0.01 for increased L-lactate release vs. reference compound aa).

[4] = tested on: 3D tumor CT26 spheroids; test: Inhibition of 3D tumor spheroid growth (Assay #3); format: cell-based, mouse; details: CT26 spheroids, day 10
Procedure: Spheroids were prepared by seeding 1500 cells/well in Ultra-Low Attachment 96-well plate (Corning, Merck, Hoeilaart, Belgium) in DMEM supplemented with 10% heat-inactivated FBS. Inhibitors were added on day 4 (mean diameter of spheroids: 300 µm) and renewed every 3 days. Spheroid growth was monitored using live-cell phase contrast microscope (Axio Observer, Zeiss, Zaventem, Belgium); spheroid area, density and morphology were measured using ImageJ software. Confocal fluorescence microscopy (LSM510, Zeiss, Zaventem, Belgium) was used for detecting pimonidazole immunostaining as previously reported. Spheroids from a same experiment were imaged with the same gain and exposure settings. In some experiments, OXPHOSi treatment was combined with irradiation using a ^137Cs γ-irradiator (IBL-637; CIS-BioInternational, Saclay, France) as previously described.
Figure 5 Inhibition of 3D tumor spheroid growth (Assay #3). […] Drug exposure without (A) or with irradiation (B) was associated with a significant reduction in spheroid sizes vs. untreated spheroids (not shown).

## Cc1n[nH]c(C)c1Cc1sc2c(c1C(=O)N1C[C@H](O)CO1)c(=O)n(C)c(=O)n2CC(C)C [AR-C155858]
[1]
  restoration of OCR / OXPHOS activity in cells exposed to aa compound: failed to restore OCR

## Cc1nc(-c2nc(-c3ccc(OC(F)(F)F)cc3)no2)nn1Cc1cccc(N2CCC(S(C)(=O)=O)CC2)c1 [IACS-010759, reference compound]
[2]
  concentration giving the same extent of maximal OCR inhibition: 100 nM
[1]; non-permeabilized CT26 cells, 100 nM
  increase in extracellular acidification rate (ECAR): +29 ± 9%

## COC(=O)C(C)=O [Methylpyruvate, methylpyruvate]
[1]
  restoration of OCR / OXPHOS activity in cells exposed to aa compound: failed to restore OXPHOS activity

## NC(=O)c1nnn(Cc2cc(Cl)c(C(=O)c3ccccc3)c(Cl)c2)c1N [ab]
[3]
  [LAC] increase: ~2 µmol/h/mg
[2]
  IC50: ~10 µM

## Cc1ccc(C(=O)c2c(Cl)cc(Cn3nnc(C(N)=O)c3N)cc2Cl)cc1 [ac]
[3]
  [LAC] increase: ~2 µmol/h/mg
[2]
  IC50: ~10 µM

## Cc1cccc(C(=O)c2c(Cl)cc(Cn3nnc(C(N)=O)c3N)cc2Cl)c1 [ad]
[3]
  [LAC] increase: ~2 µmol/h/mg
[2]
  IC50: ~10 µM

## COc1ccc(C(=O)c2c(Cl)cc(Cn3nnc(C(N)=O)c3N)cc2Cl)cc1 [ae]
[3]
  [LAC] increase: ~2 µmol/h/mg
[2]
  IC50: ~10 µM

## NC(=O)c1nnn(Cc2cc(Cl)c(C(=O)c3ccc(OC(F)(F)F)cc3)c(Cl)c2)c1N [af]
[3]
  [LAC] increase: ~2 µmol/h/mg
[2]
  IC50: ~10 µM

## NC(=O)c1nnn(Cc2cc(Cl)c(C(=O)c3ccc4ccccc4c3)c(Cl)c2)c1N [ah]
[3]
  [LAC] increase: ~2 µmol/h/mg
[2]; 1 and 10 µM
  pattern of OCR inhibition activity relative to aa: hypoactive
[2]
  IC50: ~10 µM

## NC(=O)c1nnn(Cc2cc(Cl)c(CN3CCOCC3)c(Cl)c2)c1N [ai]
[3]
  [LAC] increase: ~2 µmol/h/mg
[2]
  IC50: > 10 µM
  significant inhibition of complex I: did not show significant inhibition of complex I

## C=CCNC(=O)c1nnn(Cc2cc(Cl)c(C(=O)c3ccc(C(F)(F)F)cc3)c(Cl)c2)c1N [ak]
[3]
  [LAC] increase: ~0 µmol/h/mg
[2]
  IC50: > 10 µM

## NC(=O)c1nnn(Cc2cc(F)c(C(=O)c3ccc(Cl)cc3)c(F)c2)c1N [an]
[3]; 24 h
  L-lactate release compared with reference compound aa: more potent inducers of L-lactate release
[3]
  [LAC] increase: ~4 µmol/h/mg
[2]
  IC50: ~10 µM
[4]
  spheroid growth inhibition compared with reference compound aa: inhibited spheroid growth to the same extent as compound aa

## CC(=O)c1c(Cl)cc(Cn2nnc(C(N)=O)c2N)cc1Cl [ao]
[3]
  [LAC] increase: ~2 µmol/h/mg
[2]
  IC50: > 10 µM
  significant inhibition of complex I: did not show significant inhibition of complex I

## Cc1cc(C)cc(Cn2nnc(C(N)=O)c2N)c1 [ap]
[3]
  [LAC] increase: ~0 µmol/h/mg
[2]
  IC50: > 10 µM

## NC(=O)c1nnn(Cc2cc(Cl)cc(Cl)c2)c1N [aq]
[3]
  [LAC] increase: ~0 µmol/h/mg
[2]
  IC50: > 10 µM

## O=C(O)c1cn(Cc2cc(Cl)c(C(=O)c3ccc(Cl)cc3)c(Cl)c2)nn1 [ar]
[3]
  [LAC] increase: ~0 µmol/h/mg
[2]
  IC50: > 10 µM

## NC(=O)c1cn(Cc2cc(Cl)c(C(=O)c3ccc(Cl)cc3)c(Cl)c2)nn1 [as]
[3]
  [LAC] increase: ~2 µmol/h/mg
[2]
  IC50: > 10 µM
  significant inhibition of complex I: did not show significant inhibition of complex I

## O=C(c1ccc(Cl)cc1)c1c(Cl)cc(Cn2cc(CO)nn2)cc1Cl [av]
[3]
  [LAC] increase: ~0 µmol/h/mg
[2]
  IC50: > 10 µM

## NC(=O)c1cn(Cc2cc(F)c(C(=O)c3ccc(Cl)cc3)c(F)c2)nn1 [aw]
[3]
  [LAC] increase: ~0 µmol/h/mg
[2]
  IC50: > 10 µM

## Nc1c(C(=O)O)nnn1Cc1ccc(NC(=O)c2ccc(Cl)cc2)cc1 [ba]
[3]
  [LAC] increase: ~0 µmol/h/mg
[2]
  IC50: > 10 µM

## Nc1c(C(=O)O)nnn1Cc1cccc(NC(=O)c2ccc(OC(F)(F)F)cc2)c1 [bb]
[3]
  [LAC] increase: ~0 µmol/h/mg
[2]
  IC50: > 10 µM

## CC(C)(C)OC(=O)N1CCC(Nc2cccc(Cn3nnc(C(=O)O)c3N)c2)CC1 [bc]
[3]
  [LAC] increase: ~0 µmol/h/mg
[2]
  IC50: > 10 µM

## Nc1c(C(=O)O)nnn1Cc1cccc(N2CCOCC2)c1 [bd]
[3]
  [LAC] increase: ~0 µmol/h/mg
[2]
  IC50: > 10 µM

## Nc1c(C(=O)O)nnn1Cc1ccccc1NC(=O)c1ccc(OC(F)(F)F)cc1 [be]
[3]
  [LAC] increase: ~0 µmol/h/mg
[2]
  IC50: > 10 µM

## Nc1c(C(=O)O)nnn1Cc1ccccc1N1CCSCC1 [bf]
[3]
  [LAC] increase: ~0 µmol/h/mg
[2]
  IC50: > 10 µM

## NC(=O)c1nnn(Cc2cc(Cl)c(Cc3ccc(C(F)(F)F)cc3)c(Cl)c2)c1N [compound al]
[3]
  [LAC] increase: ~0 µmol/h/mg
[2]
  IC50: > 10 µM
